Among the test systems are COLO 205 colon; SN12C renal; UACC-62 melanoma; SW-620 colon; HL-60(TB) leukemia; NCI-H460 lung; HCT-116 colon; SK-MEL-5 melanoma; TK-10 renal; CCRF-CEM leukemia; OVCAR-3 ovarian; MALME-3M melanoma; IGROV1 ovarian; HCC-2998 colon; UACC-257 melanoma; OVCAR-4 ovarian; KM12 colon; BT-549 breast; HS 578T breast.
What all share (test): DTP human tumour cell line panel, 48 h

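Assay format: 96-well plates, 48-hour exposure. TGI: concentration producing complete growth inhibition.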

By TGI is commonly meant the concentration at which net growth stops. Read a high TGI as lower sensitivity of the cells. As to `CC(=O)Nc1ccc(-c2nnc(SCC(=O)Nc3cccc(Cl)c3)o2)cc1`, the TGI was 31 µM in the assay on COLO 205 colon; 31.6 µM with SN12C renal; 33.9 µM with UACC-62 melanoma; 28 µM in the assay with SW-620 colon; 60.4 µM in the assay with HL-60(TB) leukemia; 51.2 µM in the assay with NCI-H460 lung. Also, the TGI was 25.5 µM in the assay on HCT-116 colon; 29.1 µM in the assay with SK-MEL-5 melanoma; 33.9 µM in the assay with TK-10 renal; greater than 100 µM with CCRF-CEM leukemia; 22.1 µM in the assay with OVCAR-3 ovarian; 26.8 µM in the assay on MALME-3M melanoma. Further, the TGI in the assay on IGROV1 ovarian was determined as 32.5 µM; in the assay with HCC-2998 colon it was 37.6 µM; with UACC-257 melanoma, 43.6 µM; in the assay with OVCAR-4 ovarian, 42.3 µM; with KM12 colon, 30.8 µM.
For the compound `COc1cc2cc(C(=O)N3CC(CCl)c4ccc([N+](=O)[O-])cc43)[nH]c2c(OC)c1OC` (stereo unspecified), the TGI with COLO 205 colon, in the assay with SN12C renal, in the assay on BT-549 breast, in the assay on UACC-62 melanoma, in the assay on SW-620 colon and in the assay with HL-60(TB) leukemia was greater than 100 µM each time. Besides, the TGI in the assay with HCT-116 colon, in the assay with SK-MEL-5 melanoma, with TK-10 renal, in the assay on HS 578T breast, in the assay on CCRF-CEM leukemia and in the assay with OVCAR-3 ovarian was greater than 100 µM each time. In addition, the TGI in the assay on MALME-3M melanoma, in the assay with IGROV1 ovarian, with HCC-2998 colon, in the assay with UACC-257 melanoma, in the assay on OVCAR-4 ovarian and with KM12 colon was greater than 100 µM each time.
As to `COC1(C)C(=O)N2C1N(C(=O)OC(C)(C)C)CC2(C)C` (stereo unspecified), the TGI in the assay with COLO 205 colon is greater than 100 µM; in the assay on SN12C renal, greater than 100 µM; with UACC-62 melanoma, greater than 100 µM; in the assay with SW-620 colon, 37.5 µM; in the assay on HL-60(TB) leukemia, greater than 100 µM; in the assay on NCI-H460 lung, greater than 100 µM. The total growth inhibition concentration (TGI) in the assay on HCT-116 colon, in the assay with SK-MEL-5 melanoma, with TK-10 renal, with CCRF-CEM leukemia, in the assay on OVCAR-3 ovarian and with MALME-3M melanoma was greater than 100 µM in each case. Also, the concentration for total growth inhibition (TGI) in the assay with IGROV1 ovarian, with HCC-2998 colon, in the assay on UACC-257 melanoma, in the assay on OVCAR-4 ovarian and in the assay with KM12 colon was greater than 100 µM each time.
Consider `C=C(C)[C@@H]1CCC2=C[C@H](C/C(C)=C\C3=CC(C)=C(O3)[C@H]1O)OC2=O`, for which the TGI with COLO 205 colon, in the assay on SN12C renal, in the assay with BT-549 breast, in the assay with UACC-62 melanoma, in the assay on SW-620 colon and in the assay with HL-60(TB) leukemia was greater than 100 µM throughout. In addition, the TGI in the assay with NCI-H460 lung, with SK-MEL-5 melanoma, in the assay with TK-10 renal, in the assay with HS 578T breast, in the assay on CCRF-CEM leukemia and with OVCAR-3 ovarian was greater than 100 µM throughout. Further, the TGI in the assay with MALME-3M melanoma, with IGROV1 ovarian, in the assay with HCC-2998 colon, in the assay with UACC-257 melanoma, with OVCAR-4 ovarian and in the assay on KM12 colon was greater than 100 µM throughout.
As to `CC(=O)c1cc2c(s1)C(=O)c1sccc1C2=O`, the TGI in the assay on COLO 205 colon stood at 2.63 µM; in the assay with SN12C renal, 0.0294 µM; in the assay on BT-549 breast, 0.0321 µM; in the assay with UACC-62 melanoma it was 0.0898 µM; with SW-620 colon, 0.28 µM; with NCI-H460 lung, 0.211 µM. Besides, the TGI was 0.489 µM with HCT-116 colon; 0.0216 µM in the assay on SK-MEL-5 melanoma; 0.414 µM in the assay on TK-10 renal; 0.198 µM with HS 578T breast; 0.0912 µM in the assay with CCRF-CEM leukemia; 0.0382 µM in the assay on OVCAR-3 ovarian. In addition, the TGI in the assay on MALME-3M melanoma amounted to 0.0313 µM; with IGROV1 ovarian, 0.337 µM; in the assay with HCC-2998 colon it was 0.392 µM; with UACC-257 melanoma, 0.0289 µM; in the assay with OVCAR-4 ovarian, 0.195 µM; in the assay on KM12 colon, 0.332 µM.
Consider `C=CCC1(Sc2ccccn2)Sc2ccc3ccccc3c2-c2c(ccc3ccccc23)S1`, for which the TGI with COLO 205 colon, with SN12C renal, in the assay with UACC-62 melanoma, in the assay on SW-620 colon, with HL-60(TB) leukemia and in the assay with NCI-H460 lung was greater than 100 µM throughout. Moreover, the TGI with HCT-116 colon, in the assay with SK-MEL-5 melanoma, with TK-10 renal, in the assay on HS 578T breast, with CCRF-CEM leukemia and in the assay with OVCAR-3 ovarian was greater than 100 µM each time. The TGI with MALME-3M melanoma, in the assay with IGROV1 ovarian, with HCC-2998 colon, in the assay with UACC-257 melanoma, in the assay on OVCAR-4 ovarian and in the assay with KM12 colon was greater than 100 µM in each case.

The record behind these values is PubChem BioAssay (NCI).
